The values that follow come from PMC8315109 (Science signaling, 2021).

Test [1] has as its target T1, Jupiter microtubule-associated homolog 2 (JPT2) (Homo sapiens, UniProt Q9H910).
T1 sequence (Q9H910 1-218 isoform Q9H910-3): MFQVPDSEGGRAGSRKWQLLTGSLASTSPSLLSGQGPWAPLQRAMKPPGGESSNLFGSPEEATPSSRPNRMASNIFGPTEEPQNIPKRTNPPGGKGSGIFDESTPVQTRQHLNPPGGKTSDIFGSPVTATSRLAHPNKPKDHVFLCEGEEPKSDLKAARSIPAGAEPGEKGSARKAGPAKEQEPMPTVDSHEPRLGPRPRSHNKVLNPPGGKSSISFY
The test is described as follows: […]-NAADP radioligand filtration binding, displacement by unlabeled NAADP.

For test [2], the target named is T1, Jupiter microtubule-associated homolog 2 (JPT2). The test can be described thus: […]-NAADP radioligand filtration binding, displacement by HPLC-purified NADP.

The IC50 is the concentration that gives 50% inhibition. The compound `Nc1ncnc2c1ncn2[C@@H]1O[C@H](COP(=O)(O)OP(=O)(O)OC[C@H]2O[C@@H]([n+]3cccc(C(=O)O)c3)[C@H](O)[C@@H]2O)[C@@H](O)[C@H]1OP(=O)(O)O` [NAADP] gave a concentration for half-maximal inhibition (IC50) in test [1] of 20 ± 3.6 nM. Take `NC(=O)c1ccc[n+]([C@@H]2O[C@H](COP(=O)(O)OP(=O)(O)OC[C@H]3O[C@@H](n4cnc5c(N)ncnc54)[C@H](OP(=O)(O)O)[C@@H]3O)[C@@H](O)[C@H]2O)c1` [NADP]: the IC50 in test [2] is 334 ± 76 nM.
